Broadly, the IC50 is the concentration at which inhibition is half-maximal. By GI50 is commonly meant the concentration that inhibits growth by half.

“And” between values parts separate entries of the source, which are not always exact repeats. Identical values can stand only once. Counter-ions that a name gives are not always drawn. Bounds are passed on as bounds.

Data set [1] concerns HCT-116. Briefly: Anticancer activity against human HCT-116 cells assessed as cell growth inhibition incubated for 5 days by SRB assay. The data set is classed as functional, cell-based. The following applies: HCT-116, 120 h.
Data set [2] can be described thus: Anticancer activity against Lung adenocarcinoma cell line assessed as cell growth inhibition measured after 72 hrs by MTT assay. The format is functional, cell-based. The conditions noted are these: Lung adenocarcinoma cell line, 72 h. A general note: Tetrazolium dyes change colour on reduction, which living cells bring about.
The next data set has as its system HeLa. Kind of data set: Anticancer activity against human HeLa cells assessed as cell growth inhibition measured after 72 hrs by MTT assay. The data set is classed as functional, cell-based.
Another data set concerns A549. Briefly: Anticancer activity against human A549 cells assessed as cell growth inhibition measured after 72 hrs by MTT assay. The data set is classed as functional, cell-based.
For data set [3], the system named is HT-29. Briefly: Anticancer activity against human HT-29 cells assessed as cell growth inhibition incubated for 3 days by MTT assay. The format is functional, cell-based. The following applies: HT-29, 72 h.
The test system of a further data set is HEK293. Briefly: Anticancer activity against human HEK293 cells assessed as cell growth inhibition incubated for 3 days by MTT assay. The format is functional, cell-based. The conditions noted are these: HEK293, 72 h.
Data set [4] has as its system MCF7. Kind of data set: Anticancer activity against human MCF7 cells assessed as cell growth inhibition incubated for 3 days by MTT assay. The format is functional, cell-based. The conditions noted are these: MCF7, 72 h.
The next data set relates to PANC-1. Briefly: Anticancer activity against human PANC-1 cells assessed as cell growth inhibition incubated for 48 hrs by SRB assay. The data set is classed as functional. The following applies: Homo sapiens, PANC-1, 48 h. Background: In SRB staining, fixed cells bind dye roughly in proportion to their protein.
The test system of data set [5] is MCF7. Briefly: Anticancer activity against human MCF7 cells assessed as cell growth inhibition incubated for 48 hrs by MTS assay. The following applies: MCF7, 48 h. The format is functional, cell-based.
Data set [6] is described as follows: Cytotoxicity activity against human CCD-1059Sk cells assessed as cell growth inhibition incubated for 48 hrs by MTS assay. The format is toxicity, cell-based.
The next data set in a line: in vitro. The conditions noted are these: human, CCD-1059Sk cells and MCF7 cells.
The target of another data set is T1, Aromatase (Homo sapiens, UniProt P11511).
T1 sequence (P11511 whole entry): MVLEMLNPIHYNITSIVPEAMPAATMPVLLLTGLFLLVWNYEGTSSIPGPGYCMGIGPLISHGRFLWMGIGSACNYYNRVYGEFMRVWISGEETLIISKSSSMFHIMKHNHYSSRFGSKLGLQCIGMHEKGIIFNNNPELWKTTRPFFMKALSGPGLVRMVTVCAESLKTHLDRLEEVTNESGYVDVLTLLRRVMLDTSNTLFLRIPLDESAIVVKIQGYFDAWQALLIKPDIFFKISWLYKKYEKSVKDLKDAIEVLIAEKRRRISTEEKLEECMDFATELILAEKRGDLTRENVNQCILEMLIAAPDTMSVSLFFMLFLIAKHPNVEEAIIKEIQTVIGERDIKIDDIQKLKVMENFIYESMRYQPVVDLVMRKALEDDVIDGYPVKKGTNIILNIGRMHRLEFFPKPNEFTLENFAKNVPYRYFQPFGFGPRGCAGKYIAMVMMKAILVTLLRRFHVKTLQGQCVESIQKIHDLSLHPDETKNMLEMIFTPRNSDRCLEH

Another data set deals with CYP1A (Homo sapiens, UniProt P04798+P05177). Briefly: Inhibtion of CYP1A (unknown origin). The format is ADME, protein assay.
Data set [7] concerns HCT-116. Briefly: Anticancer activity against human HCT-116 cells assessed as cell growth inhibition. The data set is classed as functional, cell-based.
Data set [8] can be described thus: Anticancer activity against human AZ-AHR cells assessed as cell growth inhibition incubate for 24 hrs by MTT assay. The data set is classed as functional, cell-based.
Data set [9] deals with HT-29. Kind of data set: Anticancer activity against human HT-29 cells assessed as cell growth inhibition incubated for 24 hrs by MTT assay. The data set is classed as functional, cell-based. The following applies: ht-29.
The next data set relates to SK-BR-3. Briefly: Anticancer activity against human SK-BR-3 cells assessed as cell growth inhibition incubated for 24 hrs by MTT assay. The data set is classed as functional, cell-based. The conditions noted are these: SK-BR-3, 24 h.
The test system of another data set is HepG2. Briefly: Anticancer activity against human HepG2 cells assessed as cell growth inhibition incubated for 24 hrs by MTT assay. The data set is classed as functional, cell-based. The following applies: HepG2, 24 h.
In data set [10] the test system is B16-F10. Briefly: Anti cancer activity against mouse B16-F10 cells assessed as cell growth inhibition incubated for 40 hrs by Almar Blue stained fluorescence-based assay relative to control. The format is functional.
For data set [11], the system named is B16-F10. Briefly: Anti cancer activity against mouse B16-F10 cells assessed as cell growth inhibition incubated for 40 hrs by Almar Blue stained fluorescence-based assay. The conditions noted are these: B16-F10, 40 h. The data set is classed as functional.
The mark [12] stands for this setting: Homo sapiens, HeLa, 72 h, read-out: IC50.

Description for Aromatase: Inhibition of human Aromatase
Description for in vitro: Selectivity index, ratio of IC50 for cytotoxicity against CCD-1059Sk cells to IC50 for antiproliferative activity against MCF7 cells

Regarding `Oc1ccccc1/C=N/c1ccccc1O`, in the data set on HCT-116 [1], the IC50 worked out at 0.6 µM.
In the case of `COc1cccc2c1C(=O)c1c(O)c3c(c(O)c1C2=O)C[C@@](O)(C(=O)CO)C[C@@H]3O[C@H]1C[C@H](N)[C@H](O)[C@H](C)O1` [DOXORUBICIN HYDROCHLORIDE], the IC50 in [2] was 1.18 µM; in the data set with HeLa (setting [12]), 0.48 µM; in the data set on A549 (Homo sapiens, A549, 72 h) it was 2.36 µM.
Turning to `OC[C@H]1O[C@@H](Oc2cc(/C=C/c3ccc(O)cc3)cc(O[C@@H]3O[C@H](CO)[C@@H](O)[C@H](O)[C@H]3O)c2)[C@H](O)[C@@H](O)[C@@H]1O`, the figures for the IC50 in the data set with HT-29 [3], with HEK293 and in the data set on MCF7 [4] were 24 µM, greater than 100 µM and 72 µM, respectively.
As to `COc1cc(/C=C/c2ccc(OC(=O)CSc3nnc(-c4cc(OC)c(OC)c(OC)c4)o3)cc2)cc(OC)c1`, the GI50 with PANC-1 is 0.064 µM.
The same measure, in the same setting: the figure for `COc1ccc(-c2nnc(SCC(=O)Nc3ccc(/C=C/c4cc(OC)cc(OC)c4)cc3)o2)cc1` is 0.064 µM.
Take `COc1cc(/C=C/c2ccc(NC(=O)CSc3nnc(-c4cnccn4)o3)cc2)cc(OC)c1`: the GI50 with PANC-1 came to 0.064 µM.
With `COc1ccc(/C=N/NC(=O)/C=C/c2ccc(O)c(OC)c2)cc1`, the IC50 in the data set with MCF7 [5] was found to be 19.1 µM. For the same molecule, the half-inhibitory concentration (IC50) at 48 h in [6] is 158 µM. Further, the selectivity ratio in “in vitro” is 3.9.
As to `COc1cc(/C=C/c2ccc(NC(=O)CSc3nnc(-c4cccc(C(F)(F)F)c4)o3)cc2)cc(OC)c1`, in the data set with PANC-1, the GI50 turned out to be 0.064 µM.
For the molecule `Oc1ccc(/C=C/c2cc(O)cc(OCc3ccccc3)c2)cc1`, the IC50 in data set [2] amounted to 7.96 µM; in the data set with HeLa (setting [12]), 1.41 µM; against Aromatase, 2.7 µM; with A549 (Homo sapiens, A549, 72 h), 11.8 µM; against CYP1A it was 0.14 µM.
As to `COc1cc(/C=C/c2ccc(OC(=O)CSc3nnc(-c4ccncc4)o3)cc2)cc(OC)c1`, the GI50 in the data set on PANC-1 amounted to 0.064 µM.
In the case of `CC(=O)Oc1ccc(/C=C/c2cc(OC(C)=O)cc(OC(C)=O)c2)cc1` [TRIACETYLRESVERATROL], the IC50 is 3.4 µM in data set [2]; 3.4 µM with HeLa (setting [12]); 20.14 µM in the data set with HeLa (time 72 hrs); 3.4 µM and 9.43 µM in the data set on A549 (a549).
In the case of `COc1cc(/C=C/c2ccc(OC(=O)CSc3nnc(-c4ccc(C)cc4)o3)cc2)cc(OC)c1`, the GI50 in the data set on PANC-1 amounted to 0.064 µM.
On to `COc1cc(/C=C/c2ccc(OC(=O)CSc3nnc(-c4ccccc4F)o3)cc2)cc(OC)c1`, for which the concentration for 50% growth inhibition (GI50) in the data set on PANC-1 came to 0.064 µM.
The same measure, in the same setting: for `COc1cc(/C=C/c2ccc(OC(=O)CSc3nnc(-c4ccc(F)cc4)o3)cc2)cc(OC)c1` the value was 0.064 µM.
On to `O=S(=O)(Oc1ccc(/C=C/c2cc(O)cc(OS(=O)(=O)c3ccccc3)c2)cc1)c1ccccc1`, for which the IC50 turned out to be 5.55 µM in data set [2]; 6.48 µM in the data set on HeLa (setting [12]); 4.9 µM in the data set on A549 (Homo sapiens, A549, 72 h).
As to `COc1cc(/C=C/c2ccc(NC(=O)CSc3nnc(-c4ccccc4F)o3)cc2)cc(OC)c1`, the GI50 with PANC-1 came out at 0.064 µM.
Take `Oc1ccc(/C=C\c2cc(O)cc(O)c2)cc1` [CIS-RESVERATROL]: the IC50 (with HCT-116 [7]; in data set [8]) was 25.1 µM throughout.
Regarding `COc1cc(/C=C/C(=O)N/N=C/c2ccc(O)c(OC)c2)ccc1O`, in the data set on MCF7 [5], the IC50 was found to be 129 µM. In addition, the IC50 at 48 h in [6] turned out to be 74.6 µM. For the same molecule, the selectivity ratio in “in vitro” was determined as 1.73.
As for `COC(=O)c1cc(/C=C/c2cc(O)cc(O)c2)ccc1O`, the IC50 in the data set with HT-29 [9] was 44.3 µM and 18.9 µM; in the data set on SK-BR-3, 11.3 µM; in the data set on HepG2, 18.9 µM.
For the molecule `Oc1cc(O)cc(/C=C/c2ccc(OCc3ccccc3)cc2)c1`, the half-inhibitory concentration (IC50) in data set [2] stood at 9.43 µM; in the data set with HeLa (setting [12]), 8.25 µM; in the data set with A549 (Homo sapiens, A549, 72 h), 26.3 µM.
For the molecule `COc1cc(/C=C/c2ccc(OC(=O)CSc3nnc(-c4cnccn4)o3)cc2)cc(OC)c1`, the GI50 in the data set with PANC-1 was 0.064 µM.
In the case of `COc1ccc(/C=C\c2cc(OC)c(OC)c(OC)c2)cc1`, the “inhibition (INH)” value with B16-F10 [10] worked out at 80%. For the same molecule, the IC50 in the data set with B16-F10 [11] is 1 µM.
Take `CC(C)C(=O)Oc1ccc(/C=C/c2cc(OC(=O)C(C)C)cc(OC(=O)C(C)C)c2)cc1`: the IC50 in data set [2] stood at 5.1 µM; in the data set with HeLa (setting [12]), 5.1 µM; in the data set with A549 (Homo sapiens, A549, 72 h), 5.1 µM.

For the origin of these results see ChEMBL document CHEMBL5233248, “Resveratrol - A comprehensive review of recent advances in anticancer drug design and development” (Eur J Med Chem, 2020).
